Test results from patent publication US20050009840A1 (SUGEN, INC., priority 2003, published 2005).

Biological target: T1, HGFR (Homo sapiens, UniProt P08581)
T1 construct: purchased Upstate 14-526
Assay: HGFR continuous-coupled spectrophotometric assay
Format: biochemical
Settings: at 50 nM; Table 5, library procedure 40; read-out: % inhibition (percent c-MET inhibition)

T1 sequence (P08581 974-1390 limits assumed): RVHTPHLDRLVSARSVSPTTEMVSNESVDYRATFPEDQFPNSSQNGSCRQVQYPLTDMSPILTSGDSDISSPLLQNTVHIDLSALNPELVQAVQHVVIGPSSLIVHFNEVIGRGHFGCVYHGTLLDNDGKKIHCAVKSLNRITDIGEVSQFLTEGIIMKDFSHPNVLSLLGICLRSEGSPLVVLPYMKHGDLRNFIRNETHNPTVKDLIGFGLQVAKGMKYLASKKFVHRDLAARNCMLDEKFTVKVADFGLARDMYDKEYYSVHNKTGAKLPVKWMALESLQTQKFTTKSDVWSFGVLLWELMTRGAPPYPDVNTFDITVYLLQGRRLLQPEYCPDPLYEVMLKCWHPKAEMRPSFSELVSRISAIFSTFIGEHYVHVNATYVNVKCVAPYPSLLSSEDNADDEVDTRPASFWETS

SMILES | inhibition at 0.05 µM
CC(Oc1cc(-c2ccc(C(=O)N3CCN(CC(=O)N4CCCC4)CC3)cc2)cnc1N)c1c(Cl)ccc(F)c1Cl [Example L-46] | 78%
C[C@H](Oc1cc(-c2ccc(C(=O)N3CCCC[C@@H]3CCO)cc2)cnc1N)c1c(Cl)ccc(F)c1Cl [Example L-47] | 83%
CC(Oc1cc(-c2ccc(C(=O)N3CCN(CCCO)CC3)cc2)cnc1N)c1c(Cl)ccc(F)c1Cl [Example L-49] | 74%
CC(Oc1cc(-c2ccc(C(=O)NCC(C)(C)CO)cc2)cnc1N)c1c(Cl)ccc(F)c1Cl [Example L-50] | 73%
C[C@H](Oc1cc(-c2ccc(C(=O)N[C@H]3CC[C@H](O)CC3)cc2)cnc1N)c1c(Cl)ccc(F)c1Cl [Example L-51] | 73%
CCOC(=O)N1CCC(NC(=O)c2ccc(-c3cnc(N)c(OC(C)c4c(Cl)ccc(F)c4Cl)c3)cc2)CC1 [Example L-52] | 66%
COCCCNC(=O)c1ccc(-c2cnc(N)c(OC(C)c3c(Cl)ccc(F)c3Cl)c2)cc1 [Example L-54] | 95%
CC(O)CNC(=O)c1ccc(-c2cnc(N)c(OC(C)c3c(Cl)ccc(F)c3Cl)c2)cc1 [Example L-56] | 83%
Cc1cnc(CNC(=O)c2ccc(-c3cnc(N)c(OC(C)c4c(Cl)ccc(F)c4Cl)c3)cc2)cn1 [Example L-57] | 76%
CC(Oc1cc(-c2ccc(C(=O)NCC(F)(F)F)cc2)cnc1N)c1c(Cl)ccc(F)c1Cl [Example L-58] | 78%
CC(Oc1cc(-c2ccc(C(=O)NCC3(O)CCCCC3)cc2)cnc1N)c1c(Cl)ccc(F)c1Cl [Example L-59] | 81%
CC(Oc1cc(-c2ccc(C(=O)NCCCN3CCCC3=O)cc2)cnc1N)c1c(Cl)ccc(F)c1Cl [Example L-60] | 83%
CC(Oc1cc(-c2ccc(C(=O)NCCc3ccc(O)cc3)cc2)cnc1N)c1c(Cl)ccc(F)c1Cl [Example L-61] | 71%
CCN(CCO)C(=O)c1ccc(-c2cnc(N)c(OC(C)c3c(Cl)ccc(F)c3Cl)c2)cc1 [Example L-62] | 94%
CC(Oc1cc(-c2ccc(C(=O)NCCN(C)C)cc2)cnc1N)c1c(Cl)ccc(F)c1Cl [Example L-64] | 85%
CCN1CC(NC(=O)c2ccc(-c3cnc(N)c(OC(C)c4c(Cl)ccc(F)c4Cl)c3)cc2)CN1CC [Example L-65] | 79%
CCCNC(=O)c1ccc(-c2cnc(N)c(OC(C)c3c(Cl)ccc(F)c3Cl)c2)cc1 [Example L-66] | 73%
CC(C)CCNC(=O)c1ccc(-c2cnc(N)c(OC(C)c3c(Cl)ccc(F)c3Cl)c2)cc1 [Example L-67] | 53%
CCOC(=O)CN1CCN(C(=O)c2ccc(-c3cnc(N)c(OC(C)c4c(Cl)ccc(F)c4Cl)c3)cc2)CC1 [Example L-68] | 70%
CC(Oc1cc(-c2ccc(C(=O)NCCc3c[nH]c4ccc(O)cc34)cc2)cnc1N)c1c(Cl)ccc(F)c1Cl [Example L-69] | 66%
CC(Oc1cc(-c2ccc(C(=O)NC3CCC3)cc2)cnc1N)c1c(Cl)ccc(F)c1Cl [Example L-70] | 71%
CC(Oc1cc(-c2ccc(C(=O)N(C)C3CCN(C)C3)cc2)cnc1N)c1c(Cl)ccc(F)c1Cl [Example L-71] | 92%
CC(Oc1cc(-c2ccc(C(=O)NCC(C)(C)C)cc2)cnc1N)c1c(Cl)ccc(F)c1Cl [Example L-72] | 62%

SMILES | inhibition at 0.05 µM
CC(Oc1cc(-c2ccc(C(=O)N3CCCCC3CN3CCCCC3)cc2)cnc1N)c1c(Cl)ccc(F)c1Cl [Example L-73] | 90%
C[C@H](Oc1cc(-c2ccc(C(=O)NC3C[C@@H]3c3ccccc3)cc2)cnc1N)c1c(Cl)ccc(F)c1Cl (stereo partly drawn) [Example L-74] | 65%
CC(Oc1cc(-c2ccc(C(=O)NCCc3c(Cl)cccc3Cl)cc2)cnc1N)c1c(Cl)ccc(F)c1Cl [Example L-75] | 53%
CC(Oc1cc(-c2ccc(C(=O)N(C)CCc3ccncc3)cc2)cnc1N)c1c(Cl)ccc(F)c1Cl [Example L-76] | 73%
CC(Oc1cc(-c2ccc(C(=O)NCc3ccc(OC(F)(F)F)cc3)cc2)cnc1N)c1c(Cl)ccc(F)c1Cl [Example L-77] | 54%
CC(Oc1cc(-c2ccc(C(=O)N(C)CCC#N)cc2)cnc1N)c1c(Cl)ccc(F)c1Cl [Example L-78] | 68%
COCCNC(=O)c1ccc(-c2cnc(N)c(OC(C)c3c(Cl)ccc(F)c3Cl)c2)cc1 [Example L-79] | 73%
C[C@H](Oc1cc(-c2ccc(C(=O)N[C@@H](C)C3CCCCC3)cc2)cnc1N)c1c(Cl)ccc(F)c1Cl [Example L-80] | 60%
CC(Oc1cc(-c2ccc(C(=O)NC3(CO)CCCC3)cc2)cnc1N)c1c(Cl)ccc(F)c1Cl [Example L-81] | 67%
CC(C)[C@@H](CO)NC(=O)c1ccc(-c2cnc(N)c(O[C@@H](C)c3c(Cl)ccc(F)c3Cl)c2)cc1 [Example L-82] | 74%
C[C@H](Oc1cc(-c2ccc(C(=O)N[C@H](C)C3CCCCC3)cc2)cnc1N)c1c(Cl)ccc(F)c1Cl [Example L-83] | 54%
C[C@H](Oc1cc(-c2ccc(C(=O)NC[C@@H]3CCCC[C@H]3O)cc2)cnc1N)c1c(Cl)ccc(F)c1Cl [Example L-84] | 67%
CCOC(=O)C1CCN(C(=O)c2ccc(-c3cnc(N)c(OC(C)c4c(Cl)ccc(F)c4Cl)c3)cc2)CC1 [Example L-86] | 57%
CC(Oc1cc(-c2ccc(C(=O)NC3CCCCC3)cc2)cnc1N)c1c(Cl)ccc(F)c1Cl [Example L-87] | 56%
CC(Oc1cc(-c2ccc(C(=O)NCCCN3CCCC3)cc2)cnc1N)c1c(Cl)ccc(F)c1Cl [Example L-88] | 90%
CC(Oc1cc(-c2ccc(C(=O)N3CCN(c4ccncc4)CC3)cc2)cnc1N)c1c(Cl)ccc(F)c1Cl [Example L-89] | 96%
CC(Oc1cc(-c2ccc(C(=O)N3CCN(CCN(C)C)CC3)cc2)cnc1N)c1c(Cl)ccc(F)c1Cl [Example L-90] | 85%
C[C@H](Oc1cc(-c2ccc(C(=O)NC[C@H](O)c3ccccc3)cc2)cnc1N)c1c(Cl)ccc(F)c1Cl [Example L-91] | 69%
COc1cc(CCNC(=O)c2ccc(-c3cnc(N)c(OC(C)c4c(Cl)ccc(F)c4Cl)c3)cc2)ccc1O [Example L-92] | 64%
CC(NC(=O)c1ccc(-c2cnc(N)c(OC(C)c3c(Cl)ccc(F)c3Cl)c2)cc1)c1ccc(O)cc1 [Example L-93] | 62%
CC(Oc1cc(-c2ccc(C(=O)NCCc3cccc(C(F)(F)F)c3)cc2)cnc1N)c1c(Cl)ccc(F)c1Cl [Example L-94] | 51%
CC(Oc1cc(-c2ccc(C(=O)NC[C@@H]3CCCO3)cc2)cnc1N)c1c(Cl)ccc(F)c1Cl (stereo partly drawn) [Example L-96] | 61%
C[C@H](Oc1cc(-c2ccc(C(=O)NC[C@H]3CCCO3)cc2)cnc1N)c1c(Cl)ccc(F)c1Cl [Example L-97] | 60%

SMILES | inhibition at 0.05 µM
CC(Oc1cc(-c2ccc(C(=O)N(C)CC#N)cc2)cnc1N)c1c(Cl)ccc(F)c1Cl [Example L-99] | 83%
C[C@H](Oc1cc(-c2ccc(C(=O)NC[C@@H](C)O)cc2)cnc1N)c1c(Cl)ccc(F)c1Cl [Example L-101] | 79%
CNC(=O)c1ccc(-c2cnc(N)c(OC(C)c3c(Cl)ccc(F)c3Cl)c2)cc1 [Example L-102] | 82%
CC(Oc1cc(-c2ccc(C(=O)N3CCOCC3)cc2)cnc1N)c1c(Cl)ccc(F)c1Cl [Example L-103] | 91%
CC(Oc1cc(-c2ccc(C(=O)N(C)CCO)cc2)cnc1N)c1c(Cl)ccc(F)c1Cl [Example L-104] | 89%
CC(Oc1cc(-c2ccc(C(=O)NCCO)cc2)cnc1N)c1c(Cl)ccc(F)c1Cl [Example L-106] | 89%
CC(=O)N[C@@H]1CCN(C(=O)c2ccc(-c3cnc(N)c(OC(C)c4c(Cl)ccc(F)c4Cl)c3)cc2)C1 (stereo partly drawn) [Example L-107] | 87%
CCOCCCNC(=O)c1ccc(-c2cnc(N)c(OC(C)c3c(Cl)ccc(F)c3Cl)c2)cc1 [Example L-108] | 70%
CC(Oc1cc(-c2ccc(C(=O)NCCC#N)cc2)cnc1N)c1c(Cl)ccc(F)c1Cl [Example L-109] | 76%
CC(C)NC(=O)c1ccc(-c2cnc(N)c(OC(C)c3c(Cl)ccc(F)c3Cl)c2)cc1 [Example L-110] | 71%
CC(Oc1cc(-c2ccc(C(=O)NCCc3ccncc3)cc2)cnc1N)c1c(Cl)ccc(F)c1Cl [Example L-111] | 71%
CC(Oc1cc(-c2ccc(C(=O)N(C)CCN(C)C)cc2)cnc1N)c1c(Cl)ccc(F)c1Cl [Example L-112] | 85%
COc1cc(CNC(=O)c2ccc(-c3cnc(N)c(OC(C)c4c(Cl)ccc(F)c4Cl)c3)cc2)cc(OC)c1 [Example L-113] | 57%
CCCCN(C)C(=O)c1ccc(-c2cnc(N)c(OC(C)c3c(Cl)ccc(F)c3Cl)c2)cc1 [Example L-115] | 63%
CC(C)OCCCNC(=O)c1ccc(-c2cnc(N)c(OC(C)c3c(Cl)ccc(F)c3Cl)c2)cc1 [Example L-116] | 62%
CC(C)CNC(=O)c1ccc(-c2cnc(N)c(OC(C)c3c(Cl)ccc(F)c3Cl)c2)cc1 [Example L-117] | 60%
CCN(CCN(C)C)C(=O)c1ccc(-c2cnc(N)c(OC(C)c3c(Cl)ccc(F)c3Cl)c2)cc1 [Example L-118] | 86%
CCOCCNC(=O)c1ccc(-c2cnc(N)c(OC(C)c3c(Cl)ccc(F)c3Cl)c2)cc1 [Example L-120] | 63%
CC(Oc1cc(-c2ccc(C(=O)NCc3ccc(CN(C)C)cc3)cc2)cnc1N)c1c(Cl)ccc(F)c1Cl [Example L-121] | 75%
CC(Oc1cc(-c2ccc(C(=O)NCC3CC3)cc2)cnc1N)c1c(Cl)ccc(F)c1Cl [Example L-122] | 61%
CC(Oc1cc(-c2ccc(C(=O)N3CCC(N(C)C)C3)cc2)cnc1N)c1c(Cl)ccc(F)c1Cl [Example L-123] | 80%
CC(Oc1cc(-c2ccc(C(=O)N(C)C)cc2)cnc1N)c1c(Cl)ccc(F)c1Cl [Example L-125] | 77%
